According to ChEMBL document CHEMBL1201862, “PubChem BioAssay data set” (2004):
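The compound was tested at five concentrations on cells cultured in 96-well plates, with a 48-hour exposure period. GI50: concentration for 50% inhibition of growth.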 Activity calls are given as the source filed them. No stated cut-off is given here; in the data, active = GI50 up to about 1.1 µM and inactive = higher.

Columns and labels:
Test in all cases: NCI-60 cell line screen, 48 h
[1] = system: HOP-62
[2] = system: SF-268
[3] = system: OVCAR-5
[4] = system: UACC-257
[5] = system: UO-31
[6] = system: SW-620
[7] = system: SK-MEL-2
[8] = system: TK-10
[9] = system: EKVX
[10] = system: U-251
[11] = system: A549
[12] = system: HCC 2998
[13] = system: SR
[14] = system: HCT-116
[15] = system: A498
[16] = system: SK-OV-3
[17] = system: SK-MEL-5
[18] = system: CCRF-CEM

Measured: GI50

CCN1CC2(C)CC[C@@H](OC)C34[C@@H]2[C@H](OC(C)=O)C2(OCO[C@@]25C[C@H](OC)C2C[C@]3(O)[C@@H]5[C@H]2O)[C@H]14
inactive: [1] 82.6 µM | [2] > 100 µM | [3] > 100 µM | [4] > 100 µM | [5] > 100 µM | [6] > 100 µM | [7] > 100 µM | [8] > 100 µM | [9] > 100 µM | [10] > 100 µM | [11] > 100 µM | [12] > 100 µM | [13] > 100 µM | [14] > 100 µM

CCc1cccc(CC)c1NC(=O)C1=C(C)NC(C)=C(C(=O)Nc2c(CC)cccc2CC)C1c1ccc([N+](=O)[O-])cc1
inactive: [15] 19 µM | [1] 57.5 µM | [2] 33.7 µM | [3] 44.7 µM | [4] 15.4 µM | [5] 23.2 µM | [16] 38.1 µM | [6] 17.7 µM | [7] 20 µM | [8] 30.4 µM | [9] 23.5 µM | [17] 15.1 µM | [10] 40.5 µM | [18] 15.5 µM | [11] 23 µM | [12] 36.2 µM | [14] 15.1 µM

CCCCOC(=O)C1C2CCC(O2)C1C(=O)OCCCC (centres undefined)
inactive: [15] > 100 µM | [1] > 100 µM | [2] > 55.8 µM | [3] > 89.9 µM | [4] > 55.1 µM | [5] > 100 µM | [16] > 100 µM | [7] > 100 µM | [8] > 100 µM | [9] > 100 µM | [17] > 100 µM | [10] > 65.6 µM | [18] > 100 µM | [11] > 45.4 µM | [12] > 62.7 µM | [14] > 45.6 µM

CC(=O)Nc1ccc(/C=N\N2C(=O)c3ccccc3C2=O)cc1
inactive: [15] > 100 µM | [1] > 100 µM | [2] > 100 µM | [3] > 100 µM | [4] > 100 µM | [5] > 100 µM | [6] > 100 µM | [7] > 100 µM | [8] > 100 µM | [9] > 100 µM | [17] > 100 µM | [18] > 100 µM | [11] > 100 µM | [12] > 100 µM | [13] > 100 µM | [14] > 100 µM

Cc1cccc(NC(=O)/C(=N\NC(C)(C)C)C2NC(=S)NC2=O)c1C (centres undefined)
inactive: [15] > 100 µM | [1] > 100 µM | [3] > 100 µM | [4] > 100 µM | [5] > 100 µM | [16] > 100 µM | [6] > 100 µM | [7] > 100 µM | [8] > 100 µM | [9] 59.6 µM | [17] > 100 µM | [10] > 100 µM | [18] > 100 µM | [11] > 100 µM | [12] > 100 µM | [14] > 100 µM

C=C(/C=C/C=C(\CO)CCC=C(C)C)[C@H]1CCC2([C@H](CCCO)/C(=C(/C)C=O)CC[C@]2(C)O)[C@H]1O (some centres undefined)
inactive: [15] > 100 µM | [1] 75.9 µM | [3] > 100 µM | [4] > 100 µM | [16] > 100 µM | [6] > 100 µM | [7] > 100 µM | [8] 82 µM | [9] 83.8 µM | [17] > 100 µM | [10] > 100 µM | [18] 38.2 µM | [11] 59 µM | [12] > 100 µM | [14] > 100 µM

Cc1nnc2n1N=C(c1ccccc1)C(c1ccccc1)S2 (centres undefined)
inactive: [15] 64 µM | [1] 72.3 µM | [2] 44.9 µM | [3] > 100 µM | [4] 67.1 µM | [5] 51.3 µM | [16] 27.2 µM | [6] 11.2 µM | [7] 29.9 µM | [8] > 100 µM | [9] 64 µM | [17] 48.9 µM | [10] 23.1 µM | [18] 19.3 µM | [11] 45.4 µM | [12] 34.8 µM | [14] 38.2 µM

COc1ccccc1-n1c(NN)nc2ccc(Br)cc2c1=O
inactive: [1] 28.8 µM | [2] 32.4 µM | [3] 18.2 µM | [4] 24.4 µM | [5] 35.1 µM | [16] 26.5 µM | [6] 53 µM | [7] 44.4 µM | [8] 28.4 µM | [9] 27.9 µM | [17] 19.3 µM | [10] 35.4 µM | [18] 23.7 µM | [11] 45.4 µM | [12] 41.7 µM | [13] 24.9 µM

N/C=N/S(=O)(=O)c1ccc(NC(=O)COC(=O)c2cccc3c(=O)c4ccccc4[nH]c23)cc1
inactive: [1] > 100 µM | [4] > 100 µM | [5] > 100 µM | [16] > 100 µM | [6] > 100 µM | [8] > 100 µM | [9] > 100 µM | [17] > 100 µM | [10] > 100 µM | [18] > 100 µM | [11] > 100 µM | [14] > 100 µM
